Test results published in patent publication US10597388B2, “Pyridazinone herbicides” (FMC CORPORATION, priority 2014, dated 2020).

Legend:
Experiment in all cases: Test C greenhouse herbicide test, pre- and postemergence
Type in all cases: in vivo
[1] = system: barnyardgrass (Echinochloa crus-galli)
In short: (§1)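 Percent-control ratings (0 none, 100 complete) came from visual comparison with controls held alongside in the greenhouse for 13–15 d. Treatments covered soil application at sowing and foliar application to young plants 2–18 cm tall.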

[2] = system: blackgrass (Alopecurus myosuroides)
In short: as §1

corn (Zea mays) = system: corn (Zea mays)
In short: as §1

[3] = system: crabgrass, large (large crabgrass, Digitaria sanguinalis)
In short: as §1

[4] = system: foxtail, giant (giant foxtail, Setaria faberii)
In short: as §1

[5] = system: galium (catchweed bedstraw, Galium aparine)
In short: as §1

[6] = system: lambsquarters (Chenopodium album)
In short: as §1

[7] = system: morningglory (Ipomoea coccinea)
In short: as §1

[8] = system: oilseed rape (Brassica napus)
In short: as §1

[9] = system: pigweed (Amaranthus retroflexus)
In short: as §1

[10] = system: ragweed (common ragweed, Ambrosia elatior)
In short: as §1

[11] = system: ryegrass, Italian (Italian ryegrass, Lolium multiflorum)
In short: as §1

[12] = system: velvetleaf (Abutilon theophrasti)
In short: as §1

[13] = system: waterhemp (common waterhemp, Amaranthus rudis)
In short: as §1

[14] = system: wheat (winter wheat, Triticum aestivum)
In short: as §1

[15] = Postemergence, 31 g ai/ha, scale 0 to 100 (0 no effect, 100 complete control)
[16] = Postemergence, 125 g ai/ha, scale 0 to 100, 0 is no effect, 100 is complete control
[17] = Postemergence, 250 g ai/ha, scale 0 to 100, 0 no effect, 100 complete control, 13 to 15 d
[18] = Preemergence, 31 g ai/ha, scale 0 to 100, 0 is no effect, 100 is complete control
[19] = Preemergence, 62 g ai/ha, scale 0 to 100, 0 is no effect, 100 is complete control
[20] = Preemergence, 125 g ai/ha, scale 0 to 100, 0 is no effect, 100 is complete control
[21] = Preemergence, 250 g ai/ha, scale 0 to 100, 0 no effect, 100 complete control
[22] = postemergence, 62 g ai/ha, scale 0 to 100, 0 no effect, 100 complete control

CCCC(=O)Oc1c(C)nn(C)c(=O)c1-c1c(CC)sc2ccc(C)cc12 [Compound 107]
60: Plant response rating, Foxtail, Giant [4, 18] | Plant response rating, Ryegrass, Italian [11, 16] | Plant response rating, Velvetleaf [12, 19]
90: Plant response rating, Barnyardgrass [1, 17] | Plant response rating, Galium [5, 18] | Plant response rating, Galium [5, 19] | Plant response rating, Galium [5, 20] | Plant response rating, Lambsquarters [6, 16] | Plant response rating, Lambsquarters [6, 18] | Plant response rating, Ragweed [10, 19] | Plant response rating, Ryegrass, Italian [11, 17] | Velvetleaf plant response rating [12, 21] | Plant response rating, Waterhemp [13, 17]
45: Plant response rating, Barnyardgrass [1, 19] | Plant response rating, Oilseed Rape [8, 17]
80: Plant response rating, Barnyardgrass [1, 20] | Plant response rating, Foxtail, Giant [4, 19] | Plant response rating, Morningglory [7, 18] | Plant response rating, Oilseed Rape [8, 16] | Oilseed Rape plant response rating [8, 21]
10: Plant response rating, Blackgrass [2, 20] | Blackgrass plant response rating [2, 21] | Plant response rating, Corn (corn (Zea mays); [20]) | Corn plant response rating (corn (Zea mays); [22])
20: Plant response rating, Corn (corn (Zea mays); [16]) | Crabgrass, Large plant response rating [3, 22] | Plant response rating, Oilseed Rape [8, 20]
100: Plant response rating, Galium [5, 16] | Plant response rating, Lambsquarters [6, 19] | Plant response rating, Morningglory [7, 17] | Plant response rating, Pigweed [9, 18] | Plant response rating, Pigweed [9, 19] | Plant response rating, Pigweed [9, 20] | Pigweed plant response rating [9, 21] | Ragweed plant response rating [10, 21] | Plant response rating, Velvetleaf [12, 17]
40: Plant response rating, Barnyardgrass [1, 16] | Plant response rating, Ryegrass, Italian [11, 15]
98: Barnyardgrass plant response rating [1, 21] | Foxtail, Giant plant response rating [4, 21] | Plant response rating, Galium [5, 17] | Plant response rating, Lambsquarters [6, 17] | Plant response rating, Morningglory [7, 16] | Morningglory plant response rating [7, 21] | Plant response rating, Pigweed [9, 16] | Plant response rating, Pigweed [9, 17] | Plant response rating, Ragweed [10, 16] | Plant response rating, Ragweed [10, 17] | Waterhemp plant response rating [13, 21]
85: Crabgrass, Large plant response rating [3, 21] | Plant response rating, Foxtail, Giant [4, 20] | Plant response rating, Lambsquarters [6, 15] | Plant response rating, Morningglory [7, 19] | Plant response rating, Pigweed [9, 15] | Plant response rating, Ragweed [10, 15] | Plant response rating, Ragweed [10, 20] | Plant response rating, Velvetleaf [12, 20]
50: Barnyardgrass plant response rating [1, 22]
75: Plant response rating, Crabgrass, Large [3, 20] | Plant response rating, Foxtail, Giant [4, 17] | Plant response rating, Ragweed [10, 18] | Plant response rating, Velvetleaf [12, 15] | Plant response rating, Waterhemp [13, 15] | Plant response rating, Waterhemp [13, 18] | Plant response rating, Waterhemp [13, 19]
30: Plant response rating, Blackgrass [2, 17] | Plant response rating, Crabgrass, Large [3, 18] | Plant response rating, Crabgrass, Large [3, 19] | Ryegrass, Italian plant response rating [11, 21] | Plant response rating, Velvetleaf [12, 18]
25: Plant response rating, Oilseed Rape [8, 15]
95: Plant response rating, Galium [5, 15] | Galium plant response rating [5, 21] | Plant response rating, Lambsquarters [6, 20] | Lambsquarters plant response rating [6, 21] | Plant response rating, Morningglory [7, 15] | Plant response rating, Morningglory [7, 20] | Plant response rating, Velvetleaf [12, 16] | Plant response rating, Waterhemp [13, 16] | Plant response rating, Waterhemp [13, 20]
65: Plant response rating, Crabgrass, Large [3, 17]
70: Plant response rating, Foxtail, Giant [4, 16]
15: Plant response rating, Barnyardgrass [1, 18] | Plant response rating, Corn (corn (Zea mays); [17]) | Corn plant response rating (corn (Zea mays); [21]) | Plant response rating, Crabgrass, Large [3, 15] | Plant response rating, Foxtail, Giant [4, 15] | Plant response rating, Ryegrass, Italian [11, 18]
0: Plant response rating, Blackgrass [2, 15] | Plant response rating, Blackgrass [2, 18] | Plant response rating, Corn (corn (Zea mays); [18]) | Plant response rating, Corn (corn (Zea mays); [19]) | Plant response rating, Oilseed Rape [8, 18] | Plant response rating, Oilseed Rape [8, 19] | Plant response rating, Wheat [14, 15] | Plant response rating, Wheat [14, 16] | Plant response rating, Wheat [14, 17] | Plant response rating, Wheat [14, 18] | Plant response rating, Wheat [14, 19] | Plant response rating, Wheat [14, 20]
5: Plant response rating, Blackgrass [2, 16] | Plant response rating, Blackgrass [2, 19] | Blackgrass plant response rating [2, 22] | Plant response rating, Corn (corn (Zea mays); [15]) | Wheat plant response rating [14, 21]
35: Plant response rating, Barnyardgrass [1, 15] | Plant response rating, Crabgrass, Large [3, 16] | Plant response rating, Ryegrass, Italian [11, 19] | Plant response rating, Ryegrass, Italian [11, 20]
